Experimental data as given in patent US7163946B2 (Ligand Pharmaceuticals Incorporated, priority 2002, dated 2007).
Where two headings read alike, the source gives them in different places. Blank lines part the entries; values can stand above or below the compound they belong to.

How the values were obtained:
[1] = target: T1, hPR (Homo sapiens, UniProt P06401); assay: hPR cotransfection assay in CV-1 cells, agonist mode; assay type: cell-based
T1 sequence (P06401 1-933): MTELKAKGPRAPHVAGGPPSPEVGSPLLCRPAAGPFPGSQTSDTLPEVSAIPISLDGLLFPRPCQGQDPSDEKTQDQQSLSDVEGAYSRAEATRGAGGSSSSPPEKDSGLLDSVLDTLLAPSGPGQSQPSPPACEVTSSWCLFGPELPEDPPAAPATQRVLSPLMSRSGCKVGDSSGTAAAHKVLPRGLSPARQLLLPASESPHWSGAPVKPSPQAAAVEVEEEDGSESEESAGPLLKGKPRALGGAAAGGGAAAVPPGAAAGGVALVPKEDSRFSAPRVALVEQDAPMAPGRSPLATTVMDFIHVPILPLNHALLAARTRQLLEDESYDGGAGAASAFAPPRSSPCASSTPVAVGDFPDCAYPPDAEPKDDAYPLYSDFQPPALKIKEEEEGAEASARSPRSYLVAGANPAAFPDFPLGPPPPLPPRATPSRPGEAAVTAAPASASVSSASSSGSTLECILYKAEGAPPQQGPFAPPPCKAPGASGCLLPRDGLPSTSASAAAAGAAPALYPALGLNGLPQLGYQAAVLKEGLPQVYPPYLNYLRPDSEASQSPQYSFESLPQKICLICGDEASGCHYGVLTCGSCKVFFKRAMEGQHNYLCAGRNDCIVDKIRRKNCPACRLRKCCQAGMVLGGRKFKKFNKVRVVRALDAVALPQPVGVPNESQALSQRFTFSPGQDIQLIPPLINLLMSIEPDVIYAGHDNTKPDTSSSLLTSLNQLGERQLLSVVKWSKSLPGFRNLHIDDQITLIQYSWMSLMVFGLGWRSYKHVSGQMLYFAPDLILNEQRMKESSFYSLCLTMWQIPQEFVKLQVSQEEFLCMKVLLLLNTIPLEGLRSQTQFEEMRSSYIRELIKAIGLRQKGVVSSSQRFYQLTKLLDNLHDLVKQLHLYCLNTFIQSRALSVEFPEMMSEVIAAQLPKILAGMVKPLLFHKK

[2] = target: T1, hPR; assay: hPR cotransfection assay in CV-1 cells, antagonist mode; assay type: cell-based; details: CV-1 cells
[3] = target: T2, hPR (Homo sapiens, UniProt P06401); assay: T47D alkaline phosphatase assay, agonist mode; assay type: cell-based; details: T47D human breast cancer cells
T2 sequence (P06401 679-933 limits assumed): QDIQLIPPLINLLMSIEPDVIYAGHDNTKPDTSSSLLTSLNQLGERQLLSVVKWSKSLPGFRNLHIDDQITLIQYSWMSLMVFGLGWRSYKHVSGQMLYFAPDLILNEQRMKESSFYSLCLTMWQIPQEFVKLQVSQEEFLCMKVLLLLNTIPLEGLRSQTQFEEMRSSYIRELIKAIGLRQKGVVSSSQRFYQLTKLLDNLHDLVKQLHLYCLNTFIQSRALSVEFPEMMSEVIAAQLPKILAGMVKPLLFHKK

[4] = target: T3, hPR-A (Homo sapiens, UniProt P06401); assay: Receptor competitive binding assay; details: read-out: PR binding Ki
T3 sequence (P06401 1-769 isoform P06401-2): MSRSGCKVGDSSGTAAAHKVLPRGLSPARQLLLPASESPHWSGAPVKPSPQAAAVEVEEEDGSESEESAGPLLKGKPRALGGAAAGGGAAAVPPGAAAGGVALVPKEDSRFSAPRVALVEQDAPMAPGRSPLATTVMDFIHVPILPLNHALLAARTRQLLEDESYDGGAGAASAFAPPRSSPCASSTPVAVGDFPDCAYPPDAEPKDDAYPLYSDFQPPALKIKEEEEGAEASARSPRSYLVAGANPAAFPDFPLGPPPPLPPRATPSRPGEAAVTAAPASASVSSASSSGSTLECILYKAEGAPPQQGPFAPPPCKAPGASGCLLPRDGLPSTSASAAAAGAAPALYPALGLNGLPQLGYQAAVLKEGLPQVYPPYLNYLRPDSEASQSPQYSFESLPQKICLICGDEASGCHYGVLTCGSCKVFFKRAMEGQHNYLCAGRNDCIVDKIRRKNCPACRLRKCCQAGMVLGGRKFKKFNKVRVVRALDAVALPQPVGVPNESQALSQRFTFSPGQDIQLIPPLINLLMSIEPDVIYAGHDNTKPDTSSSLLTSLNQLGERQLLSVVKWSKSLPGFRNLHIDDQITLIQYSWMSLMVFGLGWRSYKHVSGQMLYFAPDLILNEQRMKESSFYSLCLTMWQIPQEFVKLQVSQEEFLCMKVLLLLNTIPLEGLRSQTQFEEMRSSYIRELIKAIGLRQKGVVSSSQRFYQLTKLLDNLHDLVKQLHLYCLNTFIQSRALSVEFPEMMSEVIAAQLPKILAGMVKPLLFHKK

[5] = tested on: ovariectomized female rats; assay: Multi-endpoint adult rat model, uterus/breast tissue-selectivity; assay type: in vivo; details: ratio of relative efficacy to MPA in uterus verse in breast tissue at the same highest dose tested; estrone-treated ovariectomized rats, three days
[6] = tested on: immature rabbits; assay: McPhail (Clauberg) rabbit assay of progestational activity; assay type: in vivo; details: Oryctolagus cuniculus; estradiol-primed immature rabbits; glandular changes of the uterus; read-out: potency (MAD in mg/kg), minimum active dose
Method: The superiority of the 7,9-difluoro analogue compounds of the present invention was further characterized utilizing the McPhail rabbit model according to the following illustrative Examples. The Clauberg or McPhail assay is a classic assay utilizing rabbits to measure progestational activity. […] In this assay, immature rabbits are treated initially with estradiol, which induces growth in the uterus. This is followed by a progestin, which causes a large change in the glandular content of the uterus. It is this change in the glandular component which is a measure of the progestational activity of a progestin. The measurement of these glandular changes is carried out histologically using stained sections of the uterus. The in vivo comparison between the new 7,9-difluoro compounds and analogues with substitution patterns different from 7,9-difluoro (U.S. Pat. Nos. 5,693,646 and 5,696,127) is tabulated in Tables 7 and 8. The in vivo potency of the progestins is presented as the minimum active dose (MAD).

[7] = target: T1, hPR
[8] = footnote a: EC50 data from U.S. Pat. Nos. 5693646/5693647/5696127; read-out: hPR agonist potencies (EC50 in nM) in the cotransfection assay; cited from earlier work
[9] = footnote b: EC50 data from J. Med. Chem. 41 (1998), 291 and 303; read-out: hPR agonist potencies (EC50 in nM) in the cotransfection assay; cited from earlier work

EC50 ([1]; CV-1 cells, read-out: hPR Agonist CV-1 Cells EC50): 1.2 nM | hPR Agonist CV-1 Cells Eff. (%) ([1]; CV-1 cells, relative to maximal response of progesterone as 100%): 110% | IC50 [2]: > 10000 nM | EC50 [3]: 6.2 nM | hPR Agonist T47D cells Eff. (%) [3]: 54% | Ki [4]: 2 nM
SMILES: CC1=CC(C)(C)Nc2ccc3c(c21)C(c1ccc(Cl)c(C)c1)Oc1c(F)cc(F)cc1-3 (single isomer, unassigned; (-)) [Compound 38, (−)-7,9-difluoro-5-(4-chloro-3-methylphenyl)-1,2-dihydro-2,2,4-trimethyl-5H-chromeno[3,4-f]quinoline]
hPR Antagonist CV-1 Cells Eff. (%) ([2]; maximal inhibition of reference agonist at EC50 concentration): na (na = not active (i.e. efficacy of <20 and potency of >10,000)) | uterus/breast tissue-selectivity [5]: 2.8 | minimal effective dose [6]: 0.25 mg/kg

SMILES: CC1=CC(C)(C)Nc2ccc3c(c21)C(c1cc2ccccc2s1)Oc1c(F)cc(F)cc1-3 (single isomer, unassigned; (-)) [Compound 64, (−)-7,9-difluoro-5-(benzo[b]thien-2-yl)-1,2-dihydro-2,2,4-trimethyl-5H-chromeno[3,4-f]quinoline]
uterus/breast tissue-selectivity [5]: 2.8 | minimal effective dose [6]: 0.25 mg/kg

SMILES: CC#CC1Oc2c(F)cc(F)cc2-c2ccc3c(c21)C(C)=CC(C)(C)N3 (single isomer, unassigned; (-)) [Compound 75, (−)-7,9-difluoro-5-(1-propynyl)-1,2-dihydro-2,2,4-trimethyl-5H-chromeno[3,4-f]quinoline]
uterus/breast tissue-selectivity [5]: 4.2 | minimal effective dose [6]: < 0.5 mg/kg

SMILES: CC1=CC(C)(C)Nc2ccc3c(c21)C(c1cccc(C(F)(F)F)c1)Oc1ccccc1-3 (stereo not shown) [Formula I X=H 3-CF3-Ph, reference compound]
uterus/breast tissue-selectivity [5]: 3.5

SMILES: CC1=CC(C)(C)Nc2ccc3c(c21)C(c1cccc(F)c1)Oc1ccccc1-3 (stereo not shown) [Formula I X=H 3-F-Ph]
EC50 [7, 8]: 9 nM

SMILES: CC1=CC(C)(C)Nc2ccc3c(c21)C(c1ccc(Cl)cc1)Oc1ccccc1-3 (stereo not shown) [Formula I X=H 4-Cl-Ph, reference compound]
uterus/breast tissue-selectivity [5]: 1.5

SMILES: CC1=CC(C)(C)Nc2ccc3c(c21)C(c1ccccc1)Oc1ccccc1-3 (stereo not shown) [Formula I X=H Ph, reference compound]
uterus/breast tissue-selectivity [5]: 0.78 | EC50 [7, 8]: 203 nM

SMILES: CC1=CC(C)(C)Nc2ccc3c(c21)C(=Cc1ccccc1C)Oc1ccc(F)cc1-3 [Formula II X=9-F 2-Me-Ph, reference compound]
uterus/breast tissue-selectivity [5]: 2.3 | minimal effective dose [6]: 1.2 mg/kg | EC50 [7, 8]: 4 nM

EC50 ([1]; Tables 3 and 4, values without footnote, read-out: hPR agonist potencies (EC50 in nM) in the cotransfection assay): 7 nM
SMILES: CC1=CC(C)(C)Nc2ccc3c(c21)/C(=C/c1cccc(F)c1)Oc1ccc(F)cc1-3 [Formula II X=9-F 3-F-Ph, reference compound]
uterus/breast tissue-selectivity [5]: 2.2

SMILES: CC1=CC(C)(C)Nc2ccc3c(c21)C(=Cc1cc(F)ccc1F)Oc1ccccc1-3 [Formula II X=H 2,5-diF-Ph]
EC50 [7, 9]: 14.7 nM

SMILES: CC1=CC(C)(C)Nc2ccc3c(c21)C(=Cc1ccccc1Cl)Oc1ccccc1-3 [Formula II X=H 2-Cl-Ph]
EC50 [7, 9]: 57.8 nM

SMILES: CC1=CC(C)(C)Nc2ccc3c(c21)C(=Cc1ccccc1F)Oc1ccccc1-3 [Formula II X=H 2-F-Ph]
EC50 [7, 9]: 29 nM

SMILES: CC1=CC(C)(C)Nc2ccc3c(c21)C(=Cc1ccccc1C)Oc1ccccc1-3 [Formula II X=H 2-Me-Ph]
EC50 [7, 9]: 5.7 nM

SMILES: CC1=CC(C)(C)Nc2ccc3c(c21)C(=Cc1cccc(F)c1)Oc1ccccc1-3 [Formula II X=H 3-F-Ph, reference compound]
uterus/breast tissue-selectivity [5]: 0.69 | EC50 ([7]; read-out: hPR agonist potencies (EC50 in nM) in the cotransfection assay; footnote b: EC50 data from J. Med. Chem. 41 (1998), 291 and 303; cited from earlier work): 7.6 nM

SMILES: CC1=CC(C)(C)Nc2ccc3c(c21)C(=Cc1ccc(F)cc1)Oc1ccccc1-3 [Formula II X=H 4-F-Ph]
EC50 [7, 9]: 59.5 nM

SMILES: CC1=CC(C)(C)Nc2ccc3c(c21)C(=Cc1ccccc1)Oc1ccccc1-3 [Formula II X=H Phenyl]
EC50 [7, 8]: 33 nM
